What was measured:
[1] = test system: Neuroblastoma (IMR-32) cancer cell line; assay: SRB in vitro cytotoxicity assay, Neuroblastoma IMR-32; format: cell-based, human
Experimental: (§1) Single cell suspension of the tumor cells grown in tissue culture were made, cells counted and cell count adjusted to 1×10^5 to 5×10^5 Ninetysix (96) well plates were seeded with this cell suspension, each well receiving 100 μl of it. The plate was then be incubated at 37° C. temperature in CO2 incubator for 24 hours. Drugs were added at appropriate concentrations after 24-hour, incubation followed by further incubation for 48 hours. Experiment was terminated by gently layering the cells in the wells with 30% TCA and plates were kept in refrigerator for 1 hour following which they were washed thoroughly with tap water, dried attained with 0.4% SRB in 1% acetic aid and finally, the bound SRB eluted with 10 mM tris. Absorbance was read at 540 nm, in the microtitre-plate reader. Optical density of drug-treated cells was compared with that of control cells and cell inhibition was calculated as percent values. […]

[2] = test system: Colon (SW-620) cancer cell line; assay: SRB in vitro cytotoxicity assay, Colon SW-620; format: cell-based, human
Experimental: as §1

[3] = test system: Liver (HEP-2) cancer cell line; assay: SRB in vitro cytotoxicity assay, Liver HEP-2; format: cell-based, human
Experimental: as §1

[4] = test system: Breast (MCF-7) cancer cell line; assay: SRB in vitro cytotoxicity assay, Breast MCF-7; format: cell-based, human
Experimental: as §1

[5] = test system: CNS (SK-N-SH) cancer cell line; assay: SRB in vitro cytotoxicity assay, CNS SK-N-SH; format: cell-based, human
Experimental: as §1

Topoisomerase-I = target: T1, Topoisomerase-I (Homo sapiens, UniProt P11387); assay: Topoisomerase-I relaxation assay; format: biochemical; details: at 100 μM (FIG. 2)
T1 sequence (P11387 1-765): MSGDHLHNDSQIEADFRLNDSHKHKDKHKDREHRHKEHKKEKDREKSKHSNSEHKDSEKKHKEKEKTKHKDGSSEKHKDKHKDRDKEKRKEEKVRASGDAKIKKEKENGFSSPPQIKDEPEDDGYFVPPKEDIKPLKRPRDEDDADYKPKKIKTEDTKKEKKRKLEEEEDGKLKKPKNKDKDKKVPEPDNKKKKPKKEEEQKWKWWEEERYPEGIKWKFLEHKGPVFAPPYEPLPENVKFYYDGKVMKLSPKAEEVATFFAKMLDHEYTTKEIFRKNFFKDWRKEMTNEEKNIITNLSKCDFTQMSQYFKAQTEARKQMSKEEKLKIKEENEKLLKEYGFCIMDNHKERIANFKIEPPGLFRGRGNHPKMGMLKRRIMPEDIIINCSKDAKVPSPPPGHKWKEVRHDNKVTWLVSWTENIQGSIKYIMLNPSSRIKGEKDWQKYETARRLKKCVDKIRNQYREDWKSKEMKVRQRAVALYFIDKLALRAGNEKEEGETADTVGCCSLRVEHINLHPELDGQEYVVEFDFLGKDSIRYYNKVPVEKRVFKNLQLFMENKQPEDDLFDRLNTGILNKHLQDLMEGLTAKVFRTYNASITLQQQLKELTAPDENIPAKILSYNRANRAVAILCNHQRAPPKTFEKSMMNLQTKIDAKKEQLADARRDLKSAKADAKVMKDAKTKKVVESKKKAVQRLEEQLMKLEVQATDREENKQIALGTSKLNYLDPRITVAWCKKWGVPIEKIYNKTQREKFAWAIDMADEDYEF
Experimental: Apart from this, some of these analogues were evaluated for Topoisomerase-I relaxation, Topoisomerase-II inhibition, DNA laddering assay and DNA cell cycle analysis. Compounds 3c, 4c, 3d and 4d were analyzed for topoisomerase-I assay at 100 μM (FIG. 2) only compound 3d was found active and rest were not active. Compounds 3d, 4d and 4c were analyzed for topoisomerase inhibition assay.
Reaction was assembled in micro centrifuge tube that contains super coiled DNA 250 ng/μl & Topoisomerase-I (4 units) in assay buffer (10 mM Tris-HCl, pH 7.9, 0.15 M NaCl, 0.1% BSA, and 5.0 mM (beta)-mercaptoethanol). In each reaction 2 μl sample was added then volume was made up to 20 μl with water and then incubated at 37° C. Reaction was terminated by addition of 2 μl of 10% SDS. Each sample tube was treated with proteinase K and extracted once with chloroform: isoamyl alcohol. Products were resolved by 0.8% agarose gel electrophoresis in TAE buffer (40 mM tris-acetate, pH 8.0, and 1 mM EDTA) and stained with 0.5 μg/ml ethedium bromide (EtBr).

[6] = test system: Colon (Colo-205) cancer cell line; assay: SRB in vitro cytotoxicity assay, Colon Colo-205; format: cell-based, human
Experimental: as §1

Topoisomerase-II = assay: DNA Topoisomerase-II inhibition assay; format: biochemical; details: FIG. 3
[7] = concentration 1 × 10^−5 (μM/mL)
[8] = concentration 1 × 10^−6 (μM/mL), control drug

| Structure (SMILES) | Growth Inhibition(%) Neuroblastma IMR-32 [1, 7] [%] | Growth Inhibition(%) Colon SW-620 [2, 7] [%] | Growth Inhibition(%) Liver HEP-2 [3, 7] [%] | Growth Inhibition(%) Breast MCF-7 [4, 7] [%] | Growth Inhibition(%) CNS SK-N-SH [5, 7] [%] | activity in topoisomerase-I assay (Topoisomerase-I) | Growth Inhibition(%) Colon Colo-205 [6, 7] [%] | activity in topoisomerase inhibition assay (Topoisomerase-II) (Topoisomerase-II) | Growth Inhibition(%) Neuroblastma IMR-32 [1, 8] [%] | Growth Inhibition(%) Colon SW-620 [2, 8] [%] | Growth Inhibition(%) Liver HEP-2 [3, 8] [%] | Growth Inhibition(%) Breast MCF-7 [4, 8] [%] | Growth Inhibition(%) CNS SK-N-SH [5, 8] [%] | Growth Inhibition(%) Colon Colo-205 [6, 8] [%] |
| --- | --- | --- | --- | --- | --- | --- | --- | --- | --- | --- | --- | --- | --- | --- |
| COc1cc([C@@H]2c3cc4c(cc3[C@@H](Nc3ccc5ccc6cccc7ccc3c5c67)[C@@H]3COC(=O)[C@H]23)OCO4)cc(OC)c1OC [Compound 3c, 4β-(1″-Pyrenylamino)-4-desoxypodophyllotoxin] | 0 | 29 | 66 | 0 | 59 | not active | 64 |  |  |  |  |  |  |  |
| COc1cc([C@@H]2c3cc4c(cc3[C@@H](Nc3ccc(C(=O)c5ccc(N(CCCl)CCCl)cc5)cc3)[C@@H]3COC(=O)[C@H]23)OCO4)cc(OC)c1OC [Compound 3f, 4β-(4″-{4″-[Di(2″-chloroethyl)amino]benzoyl}anilino)-4-desoxypodophyllotoxin] | 0 | 15 | 45 | 40 | 83 |  | 74 |  |  |  |  |  |  |  |
| COc1cc([C@@H]2c3cc4c(cc3[C@@H](Nc3cc5c6ccccc6ccc5c5ccccc35)[C@@H]3COC(=O)[C@H]23)OCO4)cc(OC)c1O [Compound 4d, 4′-O-Demethyl-4β-(6″-chrycenylamino)-4-desoxypodophyllotoxin] | 0 | 17 | 76 | 0 | 58 | not active | 58 | None of the compounds are active |  |  |  |  |  |  |
| COc1cc([C@@H]2c3cc4c(cc3[C@@H](Nc3ccc(C(=O)c5ccc(F)cc5)cc3)[C@@H]3COC(=O)[C@H]23)OCO4)cc(OC)c1O [Compound 4e, 4′-O-Demethyl-4β-[4″-(4″-fluorobenzoyl)anilino]-4-desoxypodophyllotoxin] | 11 | 42 | 51 | 39 | 91 |  | 77 |  |  |  |  |  |  |  |
| COc1cccc2c1C(=O)c1c(O)c3c(c(O)c1C2=O)C[C@@](O)(C(=O)CO)C[C@@H]3O[C@H]1C[C@H](N)[C@H](O)[C@H](C)O1 [ADR, Adriamycin, reference compound] |  |  |  |  |  |  |  |  | 0 | 21 | 23 | 23 | 36 | 18 |
| COc1cc([C@@H]2c3cc4c(cc3[C@@H](Nc3cccc5c3Cc3ccccc3-5)[C@@H]3COC(=O)[C@H]23)OCO4)cc(OC)c1OC [Compound 3b, 4β-(1″-Fluorenylamino)-4-desoxypodophyllotoxin] | 0 | 11 | 77 | 4 | 44 |  | 49 |  |  |  |  |  |  |  |
| COc1cc([C@@H]2c3cc4c(cc3[C@@H](Nc3cccc5c3Cc3ccccc3-5)[C@@H]3COC(=O)[C@H]23)OCO4)cc(OC)c1O [Compound 4b, 4′-O-Demethyl-4β-(1″-fluorenylamino)-4-desoxypodophyllotoxin] | 0 | 15 | 0 | 39 | 50 |  | 55 |  |  |  |  |  |  |  |
| COc1cc([C@@H]2c3cc4c(cc3[C@@H](Nc3ccc(C(=O)c5ccc(F)cc5)cc3)[C@@H]3COC(=O)[C@H]23)OCO4)cc(OC)c1OC [Compound 3e, 4β-[4″-(4″-Fluorobenzoyl)anilino]-4-desoxypodophyllotoxin] | 0 | 10 | 0 | 30 | 34 |  | 68 |  |  |  |  |  |  |  |
| COc1cc([C@@H]2c3cc4c(cc3[C@@H](Nc3cccc5cc6ccccc6cc35)[C@@H]3COC(=O)[C@H]23)OCO4)cc(OC)c1OC [Compound 3a, 4β-(1″-Anthrylamino)-4-desoxypodophyllotoxin] | 16 | 25 | 46 | 5 | 65 |  | 55 |  |  |  |  |  |  |  |
| COc1cc([C@@H]2c3cc4c(cc3[C@@H](Nc3ccc5ccc6cccc7ccc3c5c67)[C@@H]3COC(=O)[C@H]23)OCO4)cc(OC)c1O [Compound 4c, 4′-O-Demethyl-4β-(1″-pyrenylamino)-4-desoxypodophyllotoxin] | 0 | 7 | 39 | 0 | 40 | not active | 40 | None of the compounds are active |  |  |  |  |  |  |
| COc1cc([C@@H]2c3cc4c(cc3[C@@H](Nc3cccc5cc6ccccc6cc35)[C@@H]3COC(=O)[C@H]23)OCO4)cc(OC)c1O [Compound 4a, 4′-O-Demethyl-4β-(1″-anthrylamino)-4-desoxypodophyllotoxin] | 0 | 22 | 58 | 0 | 38 |  | 39 |  |  |  |  |  |  |  |
